This is an account of results in ChEMBL document CHEMBL5614375, “PepExplainer: An explainable deep learning model for selection-based macrocyclic peptide bioactivity prediction and optimization” (Eur J Med Chem, 2024).

Bridge positions count the residues as written; N and C are the ends. Peptide text beside a SMILES is read from it.

The assay deals with T1, IL17-RE-IL-17C (Homo sapiens, UniProt Q8NFR9+Q9P0M4).
T1 sequence (Q9P0M4 whole entry): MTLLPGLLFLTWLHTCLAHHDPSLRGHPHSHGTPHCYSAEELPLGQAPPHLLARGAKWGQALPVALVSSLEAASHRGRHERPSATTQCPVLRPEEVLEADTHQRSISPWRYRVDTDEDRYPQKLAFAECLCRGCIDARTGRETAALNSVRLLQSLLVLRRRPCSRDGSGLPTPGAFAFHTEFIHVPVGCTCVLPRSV
T1 sequence (Q8NFR9 whole entry): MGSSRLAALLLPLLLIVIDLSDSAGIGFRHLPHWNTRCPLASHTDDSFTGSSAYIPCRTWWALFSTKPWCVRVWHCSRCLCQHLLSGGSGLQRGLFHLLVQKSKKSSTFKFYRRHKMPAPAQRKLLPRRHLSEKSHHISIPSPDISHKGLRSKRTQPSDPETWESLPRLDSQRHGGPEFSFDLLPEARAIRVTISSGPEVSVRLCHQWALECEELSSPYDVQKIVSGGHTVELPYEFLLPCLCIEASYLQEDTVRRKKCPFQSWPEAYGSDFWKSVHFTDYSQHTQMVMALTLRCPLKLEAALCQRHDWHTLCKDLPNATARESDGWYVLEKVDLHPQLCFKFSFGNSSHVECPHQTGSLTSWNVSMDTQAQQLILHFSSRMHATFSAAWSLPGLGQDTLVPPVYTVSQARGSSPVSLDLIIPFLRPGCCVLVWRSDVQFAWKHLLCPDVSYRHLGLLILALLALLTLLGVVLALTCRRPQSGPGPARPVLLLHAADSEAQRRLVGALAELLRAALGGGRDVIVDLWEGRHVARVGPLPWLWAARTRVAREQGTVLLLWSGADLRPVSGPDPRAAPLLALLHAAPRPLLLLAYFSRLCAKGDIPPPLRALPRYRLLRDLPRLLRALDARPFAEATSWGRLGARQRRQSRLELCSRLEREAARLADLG
Briefly: Inhibition of interleukin-17RE/biotinylated IL-17C protein-protein interaction (unknown origin) incubated for 1 hrs by competitive ELISA. The assay is classed as protein-complex assay.
As for `CC[C@H](C)[C@@H]1NC(=O)[C@H](Cc2c[nH]cn2)NC(=O)[C@H](Cc2ccc(O)cc2)NC(=O)CSC[C@@H](C(=O)NCC(N)=O)NC(=O)CNC(=O)[C@H](CC(C)C)NC(=O)[C@H](CC(=O)O)NC(=O)CNC(=O)[C@H](Cc2ccc(O)cc2)NC(=O)[C@H](CC(C)C)NC(=O)[C@H](CO)NC(=O)[C@H](CCCNC(=N)N)NC(=O)[C@H](Cc2ccc(O)cc2)NC(=O)[C@H](Cc2ccc(O)cc2)NC1=O` ({CH2CO}-YHIYYRSLYGDLGCG-NH2; thioether N-14), the IC50 came to 1.7 nM.
Next, `CC[C@H](C)[C@@H]1NC(=O)[C@H](CCCNC(=N)N)NC(=O)[C@H](Cc2ccc(O)cc2)NC(=O)[C@H](Cc2ccc(O)cc2)NC(=O)[C@H](CCC(N)=O)NC(=O)[C@H](Cc2c[nH]cn2)NC(=O)[C@H](Cc2ccc(O)cc2)NC(=O)CSC[C@@H](C(=O)NCC(N)=O)NC(=O)CNC(=O)[C@H](CC(C)C)NC(=O)[C@H](CCC(=O)O)NC(=O)CNC(=O)[C@H](Cc2ccc(O)cc2)NC(=O)[C@H](CC(C)C)NC1=O` ({CH2CO}-YHQYYRILYGELGCG-NH2; thioether N-14): 15 nM; `CC[C@H](C)[C@@H]1NC(=O)[C@H](CCCNC(=N)N)NC(=O)[C@H](Cc2ccc(O)cc2)NC(=O)[C@H](Cc2ccc(O)cc2)NC(=O)[C@H](Cc2c[nH]cn2)NC(=O)[C@H](Cc2c[nH]cn2)NC(=O)[C@H](Cc2ccc(O)cc2)NC(=O)CSC[C@@H](C(=O)NCC(N)=O)NC(=O)CNC(=O)[C@H](CC(C)C)NC(=O)[C@H](CCCCN)NC(=O)CNC(=O)[C@H](Cc2ccc(O)cc2)NC(=O)[C@H](CC(C)C)NC1=O` ({CH2CO}-YHHYYRILYGKLGCG-NH2; thioether N-14): 73 nM.
Next, `CC(C)C[C@@H]1NC(=O)[C@H](CC(=O)O)NC(=O)CNC(=O)[C@H](Cc2ccc(O)cc2)NC(=O)[C@H](CC(C)C)NC(=O)[C@H](CO)NC(=O)[C@H](CCCNC(=N)N)NC(=O)[C@H](Cc2ccc(O)cc2)NC(=O)[C@H](CC(N)=O)NC(=O)[C@H](Cc2c[nH]cn2)NC(=O)[C@H](Cc2c[nH]cn2)NC(=O)[C@H](Cc2ccc(O)cc2)NC(=O)CSC[C@@H](C(=O)NCC(N)=O)NC(=O)CNC1=O` ({CH2CO}-YHHNYRSLYGDLGCG-NH2; thioether N-14): greater than 30000 nM; `CC[C@H](C)[C@@H]1NC(=O)[C@H](CCCNC(=N)N)NC(=O)[C@H](Cc2ccc(O)cc2)NC(=O)[C@H](Cc2ccc(O)cc2)NC(=O)[C@H](Cc2c[nH]cn2)NC(=O)[C@H](Cc2c[nH]cn2)NC(=O)[C@H](Cc2ccc(O)cc2)NC(=O)CSC[C@@H](C(=O)NCC(N)=O)NC(=O)CNC(=O)[C@H](CC(C)C)NC(=O)[C@H](CC(N)=O)NC(=O)CNC(=O)[C@H](Cc2ccc(O)cc2)NC(=O)[C@H](CC(C)C)NC1=O` ({CH2CO}-YHHYYRILYGNLGCG-NH2; thioether N-14): 47 nM; `CC[C@H](C)[C@@H]1NC(=O)[C@H](CCCCN)NC(=O)[C@H](Cc2ccc(O)cc2)NC(=O)[C@H](Cc2ccc(O)cc2)NC(=O)[C@H](Cc2c[nH]cn2)NC(=O)[C@H](Cc2c[nH]cn2)NC(=O)[C@H](Cc2ccc(O)cc2)NC(=O)CSC[C@@H](C(=O)NCC(N)=O)NC(=O)CNC(=O)[C@H](CC(C)C)NC(=O)[C@H](CCC(=O)O)NC(=O)CNC(=O)[C@H](Cc2ccc(O)cc2)NC(=O)[C@H](CC(C)C)NC1=O` ({CH2CO}-YHHYYKILYGELGCG-NH2; thioether N-14): 116 nM.
To `CC[C@H](C)[C@@H]1NC(=O)[C@H](CC(N)=O)NC(=O)[C@H](Cc2ccc(O)cc2)NC(=O)[C@H](Cc2ccc(O)cc2)NC(=O)[C@H](Cc2c[nH]cn2)NC(=O)[C@H](Cc2c[nH]cn2)NC(=O)[C@H](Cc2ccc(O)cc2)NC(=O)CSC[C@@H](C(=O)NCC(N)=O)NC(=O)CNC(=O)[C@H](CC(C)C)NC(=O)[C@H](CCC(=O)O)NC(=O)CNC(=O)[C@H](Cc2ccc(O)cc2)NC(=O)[C@H](CC(C)C)NC1=O` ({CH2CO}-YHHYYNILYGELGCG-NH2; thioether N-14) belongs 2360 nM; to `CC(C)C[C@@H]1NC(=O)[C@H](CC(=O)O)NC(=O)CNC(=O)[C@H](Cc2ccc(O)cc2)NC(=O)[C@H](CC(C)C)NC(=O)[C@H](CO)NC(=O)[C@H](CCCNC(=N)N)NC(=O)[C@H](Cc2c[nH]cn2)NC(=O)[C@H](Cc2ccc(O)cc2)NC(=O)[C@H](Cc2c[nH]cn2)NC(=O)[C@H](Cc2c[nH]cn2)NC(=O)[C@H](Cc2ccc(O)cc2)NC(=O)CSC[C@@H](C(=O)NCC(N)=O)NC(=O)CNC1=O` ({CH2CO}-YHHYHRSLYGDLGCG-NH2; thioether N-14), greater than 30000 nM.
For `CC[C@H](C)[C@@H]1NC(=O)[C@H](CCCNC(=N)N)NC(=O)[C@H](Cc2ccc(O)cc2)NC(=O)[C@H](Cc2ccc(O)cc2)NC(=O)[C@H](CCCCN)NC(=O)[C@H](Cc2c[nH]cn2)NC(=O)[C@H](Cc2ccc(O)cc2)NC(=O)CSC[C@@H](C(=O)NCC(N)=O)NC(=O)CNC(=O)[C@H](CC(C)C)NC(=O)[C@H](CCC(=O)O)NC(=O)CNC(=O)[C@H](Cc2ccc(O)cc2)NC(=O)[C@H](CC(C)C)NC1=O` ({CH2CO}-YHKYYRILYGELGCG-NH2; thioether N-14), the IC50 stood at 89 nM.
Next, `CC[C@@H](C)[C@@H]1NC(=O)[C@H](CCCNC(=N)N)NC(=O)[C@H](Cc2ccc(O)cc2)NC(=O)[C@H](Cc2ccc(O)cc2)NC(=O)[C@H](CCC(N)=O)NC(=O)[C@H](Cc2c[nH]cn2)NC(=O)[C@H](Cc2ccc(O)cc2)NC(=O)CSC[C@@H](C(=O)NCC(N)=O)NC(=O)CNC(=O)[C@H](CC(C)C)NC(=O)[C@H](CC(N)=O)NC(=O)CNC(=O)[C@H](Cc2ccc(O)cc2)NC(=O)[C@H](CC(C)C)NC1=O`: 5.6 nM; `CC[C@H](C)[C@@H]1NC(=O)[C@H](CCCNC(=N)N)NC(=O)[C@H](Cc2ccc(O)cc2)NC(=O)[C@H](Cc2ccc(O)cc2)NC(=O)[C@H](Cc2c[nH]cn2)NC(=O)[C@H](Cc2c[nH]cn2)NC(=O)[C@H](Cc2ccc(O)cc2)NC(=O)CSC[C@@H](C(=O)NCC(N)=O)NC(=O)CNC(=O)[C@H](CC(C)C)NC(=O)[C@H](CCC(=O)O)NC(=O)CNC(=O)[C@H](Cc2ccc(O)cc2)NC(=O)[C@H](Cc2ccccc2)NC1=O` ({CH2CO}-YHHYYRIFYGELGCG-NH2; thioether N-14): 23300 nM.
Next, `CC[C@H](C)[C@@H]1NC(=O)[C@H](CCCNC(=N)N)NC(=O)[C@H](Cc2ccc(O)cc2)NC(=O)[C@H](Cc2ccc(O)cc2)NC(=O)[C@H](Cc2ccc(O)cc2)NC(=O)[C@H](Cc2c[nH]cn2)NC(=O)[C@H](Cc2ccc(O)cc2)NC(=O)CSC[C@@H](C(=O)NCC(N)=O)NC(=O)CNC(=O)[C@H](CC(C)C)NC(=O)[C@H](CCC(=O)O)NC(=O)CNC(=O)[C@H](Cc2ccc(O)cc2)NC(=O)[C@H](CC(C)C)NC1=O` ({CH2CO}-YHYYYRILYGELGCG-NH2; thioether N-14): 119 nM; `CC[C@H](C)[C@@H]1NC(=O)[C@H](CCCNC(=N)N)NC(=O)[C@H](Cc2ccc(O)cc2)NC(=O)[C@H](Cc2ccc(O)cc2)NC(=O)[C@H](CCC(N)=O)NC(=O)[C@H](Cc2c[nH]cn2)NC(=O)[C@H](Cc2ccc(O)cc2)NC(=O)CSC[C@@H](C(=O)NCC(N)=O)NC(=O)[C@H](C(C)C)NC(=O)[C@H](CC(C)C)NC(=O)[C@H](CCC(=O)O)NC(=O)CNC(=O)[C@H](Cc2ccc(O)cc2)NC(=O)[C@H](CC(C)C)NC1=O` ({CH2CO}-YHQYYRILYGELVCG-NH2; thioether N-14): greater than 30000 nM; `CC[C@H](C)[C@@H]1NC(=O)[C@H](CCCNC(=N)N)NC(=O)[C@H](Cc2ccc(O)cc2)NC(=O)[C@H](Cc2ccc(O)cc2)NC(=O)[C@H](CC(C)C)NC(=O)[C@H](Cc2c[nH]cn2)NC(=O)[C@H](Cc2ccc(O)cc2)NC(=O)CSC[C@@H](C(=O)NCC(N)=O)NC(=O)CNC(=O)[C@H](CC(C)C)NC(=O)[C@H](CCC(=O)O)NC(=O)CNC(=O)[C@H](Cc2ccc(O)cc2)NC(=O)[C@H](CC(C)C)NC1=O` ({CH2CO}-YHLYYRILYGELGCG-NH2; thioether N-14): 68 nM.
Next, `CC[C@H](C)[C@@H]1NC(=O)[C@H](CCCNC(=N)N)NC(=O)[C@H](Cc2ccc(O)cc2)NC(=O)[C@H](Cc2ccc(O)cc2)NC(=O)[C@H](CCCNC(=N)N)NC(=O)[C@H](Cc2c[nH]cn2)NC(=O)[C@H](Cc2ccc(O)cc2)NC(=O)CSC[C@@H](C(=O)NCC(N)=O)NC(=O)CNC(=O)[C@H](CC(C)C)NC(=O)[C@H](CCC(=O)O)NC(=O)CNC(=O)[C@H](Cc2ccc(O)cc2)NC(=O)[C@H](CC(C)C)NC1=O` ({CH2CO}-YHRYYRILYGELGCG-NH2; thioether N-14): 108 nM; `CC[C@H](C)[C@@H]1NC(=O)[C@H](Cc2c[nH]cn2)NC(=O)[C@H](Cc2ccc(O)cc2)NC(=O)CSC[C@@H](C(=O)NCC(N)=O)NC(=O)CNC(=O)[C@H](CC(C)C)NC(=O)[C@H](CC(N)=O)NC(=O)CNC(=O)[C@H](Cc2ccc(O)cc2)NC(=O)[C@H](CC(C)C)NC(=O)[C@H](CO)NC(=O)[C@H](C)NC(=O)[C@H](Cc2ccc(O)cc2)NC(=O)[C@H](Cc2ccc(O)cc2)NC1=O` ({CH2CO}-YHIYYASLYGNLGCG-NH2; thioether N-14): 1.4 nM.
